According to patent publication US8486962B2, “Antifungal agents” (F2G Ltd., priority 2005, dated 2013):
Values after ≈ are worked out from the molar mass of the structure shown. Where two headings read alike, the source gives them in different places.

Columns and labels:
[1] = system: Aspergillus terreus; assay: MIC, YAG medium, Aspergillus terreus; assay type: cell-based; conditions: YAG medium; for MIC: Aspergillus terreus
In short: (§1)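 OD at 485 nm versus drug-free control defines MIC (mg/L): >80% inhibition for Candida albicans in RPMI/2% glucose/MOPS pH7.0 after 24-48 hrs at 35° C, >70% for Aspergillus strains in YAG medium after 24 hrs at 35° C. Spore inocula 1-2×10^4 cfu/ml; yeast 1-2×10^3 cfu/ml.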

[2] = system: Aspergillus fumigatus AF210; assay: MIC, YAG medium, Aspergillus fumigatus AF210; assay type: cell-based; conditions: YAG medium; for MIC: Aspergillus fumigatus, AF210, read-out: MIC A Fum. 210
In short: as §1

[3] = system: Aspergillus fumigatus AF293; assay: MIC, YAG medium, Aspergillus fumigatus AF293; assay type: cell-based; conditions: YAG medium; for MIC: Aspergillus fumigatus, AF293, read-out: MIC A Fum. 293
In short: as §1

[4] = system: Aspergillus niger; assay: MIC, YAG medium, Aspergillus niger; assay type: cell-based; conditions: YAG medium; for MIC: Aspergillus niger
In short: as §1

[5] = system: A Terreus 49; assay: MIC, YAG medium, A Terreus 49; assay type: cell-based, Aspergillus terreus; conditions: Aspergillus terreus; YAG medium; read-out: MIC A Terreus 49
Procedure: Measurement of Minimum Inhibitory Concentrations (MICs)
Between 1 and 5 mgs of compound were accurately weighed out into a sterile Eppendorf tube. The compound was dissolved in DMSO to give a solution containing 5 mg/ml. Tubes were stored at −20° C. until required.
On the day of testing thawed solutions were vortex mixed to ensure homogeneity. 30 μl of solution was removed and added to 570 μl of sterile water in a separate sterile Eppendorf. The thoroughly mixed solution was used to prepare a series of doubling dilutions in water, in a deep well plate. Eleven replicate plates were prepared using a Minitrak by aspirating 20 μl from each well into eleven clear polystyrene 96 well plates.
Spores of Aspergillus spp (Aspergillus fumigatus, Aspergillus terreus, Aspergillus niger and Aspergillus flavus) were harvested from cultures grown on Sabarauds agar for 5 days, and resuspended in PBS/Tween 80 to approx 1×10^7 cfu/ml Other filamentous fungi (Fusarium solani, Scedosporium spp., Trichophyton spp., Absidia corymbifera), were grown on Sabarauds agar for 2-10 days and spores/hyphae resuspended in PBS/Tween to give approx 1×10^7 cfU/ml. Candida species (Candida albicans, Candida glabrata, Candida krusei, Candida parapsilosis and Candida tropicalis) were grown on Sabarauds agar, cells were harvested from the agar using a sterile loop and resuspended in PBS/Tween 80 to approx 1×10^6 cfu/ml. Each organism suspension was diluted in RPMI medium, containing 2% glucose and 0.135M MOPS buffer (pH7.0) to 2×10^4 cfu/ml for Aspergillus spp and other filamentous fungi and 2×10^3 cfu/ml for yeast. 80 μl of an organism suspension was added to each well of the plate containing drug dilutions.
This produced MIC plates with a drug range 50-0.05 mg/L and organism inocula of 1-2×10^4 cfu/ml for Aspergillus spp and other filamentous fungi and 1-2×10^3 cfu/ml for yeasts. All plates were incubated for 24-48 hrs at 35° C. Growth was assessed by monitoring the optical density at 485 nm for each well. The MIC of a compound is the lowest drug concentration that inhibits growth of an organism by >80% compared with a drug free control. MICs are recorded as mg/L. Other growth media can be used for susceptibility testing, and the activity of the described compounds can also be assessed in a medium comprising, 1% glucose, 1% ammonium chloride and 0.5% yeast extract (YAG medium). To perform MIC tests in this medium, dilutions of compounds are prepared in microtitre plates as described above. Fungal strains to be tested are grown and harvested in an identical manner to that described above, each organism suspension is then diluted in YAG medium to 2×10^4 cfu/ml for Aspergillus spp and other filamentous fungi and 2×10^3 cfu/ml for yeast. 80 μl of an organism suspension was added to each well of the plate containing drug dilutions. This produced MIC plates with a drug range 50-0.05 mg/L and organism inocula of 1-2×10^4 cfu/ml for Aspergillus spp and other filamentous fungi and 1-2×10^3 cfu/ml for yeasts. All plates were incubated for 24 hrs at 35° C. Growth was assessed by monitoring the optical density at 485 nm for each well. The MIC of a compound is the lowest drug concentration that inhibits growth of an organism by >70% compared with a drug free control. MICs are recorded as mg/L. In cases where the MIC of an organism is […]0.05 mg/L the MIC is repeated using a concentration range of 0.5-0.0005 mg/L. MIC tests in YAG medium have more clear-cut endpoints and have slightly lower MICS than those performed in RPMI medium.
The following organisms were tested: Aspergillus fumigatus AF293 and Aspergillus fumigatus AF210, Aspergillus niger, Aspergillus terreus, Aspergillus favus, Candida albicans, Candida krusei, Candida tropicalis, Candida glabrata, Candida parapsilosis, Trichophyton rubrum, Trichophyton mentagrophytes, Scedosporium prolificans, Scedosporium apiospermum, Absidia corymbifera, Fusarium solani.

[6] = system: Aspergillus flavus; assay: MIC, YAG medium, Aspergillus flavus; assay type: cell-based; conditions: YAG medium; for MIC: Aspergillus flavus
In short: as §1

Compound	MIC ([1]; read-out: MIC A Terreus 4)	MIC [2]	MIC [3]	MIC ([4]; read-out: MIC A Niger 1)	MIC [5]	MIC ([6]; read-out: MIC A Flavus 01)	MIC ([1]; read-out: MIC A Terreus)	MIC ([4]; read-out: MIC A Niger)	MIC ([6]; read-out: MIC A Flavus)	other results
COc1ccccc1NC(=O)C(=O)c1c(-c2ccccc2)cc2ccccn12 [Example 137, N-(2-Methoxy-phenyl)-2-oxo-2-(2-phenyl-indolizin-3-yl)-acetamide]	0.06 µg/mL (≈ 0.162 µM)	0.5 µg/mL (≈ 1.35 µM)	0.2 µg/mL (≈ 0.54 µM)	0.062 µg/mL (≈ 0.167 µM)	0.06 µg/mL (≈ 0.162 µM)	0.125 µg/mL (≈ 0.337 µM)	–	–	–	–
COc1cccc(NC(=O)C(=O)c2c(-c3ccccc3)cc3ccccn23)c1 [Example 138, N-(3-Methoxy-phenyl)-2-oxo-2-(2-phenyl-indolizin-3-yl)-acetamide]	0.031 µg/mL (≈ 0.0837 µM)	0.12 µg/mL (≈ 0.324 µM)	0.12 µg/mL (≈ 0.324 µM)	0.12 µg/mL (≈ 0.324 µM)	0.004 µg/mL (≈ 0.0108 µM)	0.015 µg/mL (≈ 0.0405 µM)	–	–	–	–
COc1ccc(NC(=O)C(=O)c2c(-c3ccccc3)cc3ccccn23)cc1 [Example 139, N-(4-Methoxy-phenyl)-2-oxo-2-(2-phenyl-indolizin-3-yl)-acetamide]	0.008 µg/mL (≈ 0.0216 µM)	0.12 µg/mL (≈ 0.324 µM)	0.12 µg/mL (≈ 0.324 µM)	0.031 µg/mL (≈ 0.0837 µM)	0.002 µg/mL (≈ 0.0054 µM)	0.008 µg/mL (≈ 0.0216 µM)	–	–	–	–
COc1ccc2cc(-c3ccccc3)c(C(=O)C(=O)Nc3ccc(N(C)C)cc3)n2c1 [Example 242, N-(4-Dimethylamino-phenyl)-2-(6-methoxy-2-phenyl-indolizin-3-yl)-2-oxo-acetamide]	0.1 µg/mL (≈ 0.242 µM)	0.8 µg/mL (≈ 1.93 µM)	0.8 µg/mL (≈ 1.93 µM)	0.4 µg/mL (≈ 0.967 µM)	–	0.05 µg/mL (≈ 0.121 µM)	–	–	–	–
O=C(C(=O)N1CCOCC1)c1c(-c2ccccc2)cc2ccccn12 [Example 300, 1-Morpholin-4-yl-2-(2-phenyl-indolizin-3-yl)-ethane-1,2-dione]	–	> 50 µg/mL	> 50 µg/mL	–	–	–	> 50 µg/mL	25 µg/mL (≈ 74.8 µM)	> 50 µg/mL	–
O=C(C(=O)N1CCCCCC1)c1c(-c2ccccc2)cc2ccccn12 [Example 301, 1-Azepan-1-yl-2-(2-phenyl-indolizin-3-yl)-ethane-1,2-dione]	–	25 µg/mL (≈ 72.2 µM)	50 µg/mL (≈ 144 µM)	–	–	–	12.5 µg/mL (≈ 36.1 µM)	25 µg/mL (≈ 72.2 µM)	50 µg/mL (≈ 144 µM)	–
CCN(C(=O)C(=O)c1c(-c2ccccc2)cc2ccccn12)c1ccccc1 [Example 302, N-Ethyl-2-oxo-N-phenyl-2-(2-phenyl-indolizin-3-yl)-acetamide]	–	25 µg/mL (≈ 67.9 µM)	50 µg/mL (≈ 136 µM)	–	–	–	25 µg/mL (≈ 67.9 µM)	> 50 µg/mL	> 50 µg/mL	–
Cc1c(NC(=O)C(=O)c2c(-c3ccccc3)cc3ccccn23)c(=O)n(-c2ccccc2)n1C [Example 303, N-(1,5-Dimethyl-3-oxo-2-phenyl-2,3-dihydro-1-pyrazol-4-yl)-2-oxo-2-(2-phenyl-indolizin-3-yl)-acetamide]	–	–	–	–	–	–	–	–	–	MIC A Terreus [1]: 25 µg/mL (≈ 55.5 µM); MIC A Fum. 210 [2]: 50 µg/mL (≈ 111 µM); MIC A Fum. 293 [3]: 50 µg/mL (≈ 111 µM); MIC A Niger [4]: 50 µg/mL (≈ 111 µM); MIC A Flavus [6]: 50 µg/mL (≈ 111 µM)
N-(3-Methyl-3H-benzoimidazol-5-yl)-2-oxo-2-(2-phenyl-indolizin-3-yl)-acetamide and N-(1-Methyl-1H-benzoimidazol-5-yl)-2-oxo-2-(2-phenyl-indolizin-3-yl)-acetamide [Example 241]	–	–	–	–	–	–	–	–	–	MIC A Terreus 4 [1]: 12.5 µg/mL; MIC A Fum. 210 [2]: 12.5 µg/mL; MIC A Fum. 293 [3]: 12.5 µg/mL; MIC A Niger 1 [4]: 12.5 µg/mL; MIC A Flavus 01 [6]: 0.8 µg/mL
